Laboratory results as given in article PMC7006908 (PLoS ONE, 2020).
Several values for one entry are separate records, joined by “and”; a condition that tells them apart may be missing. Identical values can stand only once. Like-named read-outs stand apart in the source and are kept apart here. Blank lines part the entries; values can stand above or below the compound they belong to.

Assays:
[1] = Stability of deproteinized QCs in autosampler at 4 °C; format: physicochemical; conditions: for Acc. %, T = 72 h in autosampler (4°C): % of nominal
Method: (§1) Stability tests were conducted using QCs prepared in triplicate at each concentration (L, M, H): bench-top stability was investigated after 4 h at room temperature; stability of the deproteinized QCs was evaluated in autosampler set at 4 °C re-analysing the samples 24, 48, and 72 h after the first injection; freeze/thaw stability was assessed by analysing three freshly prepared aliquots of each QCs concentration, and then again after one and two freeze/thaw cycles.

[2] = Long term stability of working solutions in methanol at -20°C; format: physicochemical; conditions: for Acc. %, stored at -20ºC over 2 months (methanol): % of nominal
[3] = LC-MS/MS quantification of Cmin in plasma samples from breast cancer patients (clinical study CRO-2018-83); format: in vivo, human; conditions: for concentration at 25 h / concentration at 1 week / concentration at 15 h / concentration at 30 h: human, plasma, oral; for concentration at 25 h / concentration at 1 week: 125 mg/day; for concentration at 25 h: patient 2, sample 3, PALBO 125 mg/day; for concentration at 1 week: patient 3, sample 4, PALBO 125 mg/day; for concentration at 15 h: patient 7, sample 9, PALBO 125 mg/day; for concentration at 30 h: patient 8, sample 10, RIBO 600 mg/day + LETRO 2.5 mg/day
Method: Preparation of calibration curve and QCs samples was conducted through the following steps: 1) 5 μL of working solutions were added to 95 μL of blank human plasma (dilution 1:20) and vortexed for 10 s; 2) a 10 μL-aliquot of this mix was added with 80 μL of cold IS working solution (see “Standard solutions preparation” section), vortexed and then centrifuged for 15 min at 16200 g and 4°C; 3) 70 μL of the supernatant were transferred to a polypropylene tube for the following analysis. […] The preparation of patients’ samples was conducted as following: patient plasma was thawed at room temperature, vortexed for 10 s and centrifuged, for 10 min, at 3000 g and 4°C; 10 μL of plasma was then treated according to steps 2) and 3).
The HPLC system was a SIL-20AC XR auto-sampler and LC-20AD UFLC XR pumps (Shimadzu, Tokyo, Japan). The mobile phases (MP) consisted of ultrapure water with 0.1% HCOOH (phase A) and methanol/isopropanol (9:1, v/v) with 0.1% HCOOH (phase B). The chromatographic separation was obtained on the Luna Omega Polar C18 column ([…], 100 Å, 50 x 2.1 mm) coupled with a Security Guard Cartridge (Polar, C18, 4 x 2.0 mm), both provided by Phenomenex (Castel Maggiore (BO), Italy). The mass spectrometry system used for the detection was an API 4000 triple quadrupole (AB SCIEX, Massachusetts, USA) with a TurboIonSpray source operating in positive ion mode. To optimize source and compound dependent parameters, solutions of each analyte at the concentration of 100 ng/mL were used with a flow rate of 20 μL/min. Data were processed with Analyst 1.6.3 and the quantification of the peaks was done with MultiQuant 2.1 (software package AB SCIEX).
The exclusion criteria were to be non-collaborative and/or unreliable patients and refusal of informed consent. Patients were asked to periodically (every two months) collect plasma samples for the estimation of PALBO or RIBO and/or LETRO Cmin during their therapy treatment.
Plasma was obtained immediately by centrifugation of the blood samples at 3000 g for 10 min at 4°C. Then the obtained plasma was split into two independent aliquots and stored at -80°C in two different freezers.
At present, each of the 10 patients’ samples collected were quantified in 2 separate runs during 2 different working days, to further assess the reproducibility of the proposed method. In fact, as recently introduced in the last version of the FDA guideline, incurred samples re-analysis (ISR) is necessary to show the reliability of the reported analyte concentrations obtained with a bioanalytical method. ISR is conducted by repeating the analysis of a subset of patients’ samples in separate runs. The two analyses can be considered equivalent if the percentage difference [expressed as: (repeat-original)*100/mean] between the first and the second concentration measured is within ±20% for at least 67% of the samples [23, 24].

[4] = Long term stability in human plasma at -80°C; format: in vitro ADME; conditions: for Acc. %, stored at -80ºC over 2 months (plasma): % of nominal
[5] = patients, cited from earlier work
[6] = Bench-top stability in human plasma, 4 h at room temperature; format: in vitro ADME
Method: as §1

[7] = deproteinized QC high: nominal 200.00 PALBO / 8000.00 RIBO / 400.00 LETRO ng/mL
[8] = deproteinized QC low: nominal 0.50 PALBO / 20.00 RIBO / 1.00 LETRO ng/mL
[9] = deproteinized QC medium: nominal 20.00 PALBO / 800.00 RIBO / 40.00 LETRO ng/mL
[10] = QC high: nominal 200.00 PALBO / 8000.00 RIBO / 400.00 LETRO ng/mL
[11] = QC low: nominal 0.50 PALBO / 20.00 RIBO / 1.00 LETRO ng/mL
[12] = QC medium: nominal 20.00 PALBO / 800.00 RIBO / 40.00 LETRO ng/mL
[13] = reanalysis in second run, read-out: II quantif. plasma concentration (Cmin)

Mean ± SD measured concentration, T = 72 h in autosampler (4°C) [1, 7]: 215.60 ± 8.28 ng/mL
Acc. %, T = 72 h in autosampler (4°C) [1, 7]: 107.8%
Mean ± SD measured concentration, T = 72 h in autosampler (4°C) [1, 8]: 0.54 ± 0.02 ng/mL
Acc. %, T = 72 h in autosampler (4°C) [1, 8]: 108.2%
Mean ± SD measured concentration, T = 72 h in autosampler (4°C) [1, 9]: 21.10 ± 1.23 ng/mL
Acc. %, T = 72 h in autosampler (4°C) [1, 9]: 105.5%
Mean ± SD measured concentration, stored at -20ºC over 2 months (methanol) [2, 10]: 219.18 ± 9.46 ng/mL
Acc. %, stored at -20ºC over 2 months (methanol) [2, 10]: 109.6%
Mean ± SD measured concentration, stored at -20ºC over 2 months (methanol) [2, 11]: 0.52 ± 0.02 ng/mL
Mean ± SD measured concentration, stored at -20ºC over 2 months (methanol) [2, 12]: 22.43 ± 0.63 ng/mL
concentration at 25 h ([3]; 25 h from last capsule intake, read-out: I quantif. plasma concentration (Cmin)): 77.5 ng/mL
concentration at 25 h [3, 13]: 82.4 ng/mL
concentration at 1 week ([3]; last PALBO intake 1 week before sampling, read-out: I quantif. plasma concentration (residual)): 1.6 ng/mL
concentration at 1 week ([3]; last intake 1 week before sampling, reanalysis in second run, read-out: II quantif. plasma concentration (residual)): 1.5 ng/mL
concentration at 15 h ([3]; LETRO 2.5 mg/day, last pill intake 15 h before sampling, read-out: I quantif. plasma concentration (Cmin)): 97.9 ng/mL
concentration at 15 h ([3]; LETRO 2.5 mg/day, reanalysis in second run, read-out: II quantif. plasma concentration (Cmin)): 96.2 ng/mL
I quantif. plasma concentration (Cmin) ([3]; patient 1, sample 1, PALBO 125 mg/day): 53.0 ng/mL
II quantif. plasma concentration (Cmin) ([3]; patient 1, sample 1, PALBO 125 mg/day, reanalysis in second run): 55.9 ng/mL
I quantif. plasma concentration (Cmin) ([3]; patient 2, sample 2, PALBO 125 mg/day): 76.9 ng/mL
II quantif. plasma concentration (Cmin) ([3]; patient 2, sample 2, PALBO 125 mg/day, reanalysis in second run): 84.2 ng/mL
I quantif. plasma concentration (Cmin) ([3]; patient 4, sample 5, PALBO 100 mg/day): 70.7 ng/mL
II quantif. plasma concentration (Cmin) ([3]; patient 4, sample 5, PALBO 100 mg/day, reanalysis in second run): 74.3 ng/mL
I quantif. plasma concentration (Cmin) ([3]; patient 5, sample 6, PALBO 125 mg/day): 39.5 ng/mL
II quantif. plasma concentration (Cmin) ([3]; patient 5, sample 6, PALBO 125 mg/day, reanalysis in second run): 43.0 ng/mL
I quantif. plasma concentration (Cmin) ([3]; patient 5, sample 7, PALBO 125 mg/day): 41.5 ng/mL
II quantif. plasma concentration (Cmin) ([3]; patient 5, sample 7, PALBO 125 mg/day, reanalysis in second run): 46.1 ng/mL
I quantif. plasma concentration (Cmin) ([3]; patient 6, sample 8, PALBO 125 mg/day, LETRO 2.5 mg/day): 69.7 ng/mL
II quantif. plasma concentration (Cmin) ([3]; patient 6, sample 8, PALBO 125 mg/day, LETRO 2.5 mg/day, reanalysis in second run): 74.0 ng/mL
Structure (SMILES): CC(=O)c1c(C)c2cnc(Nc3ccc(N4CCNCC4)cn3)nc2n(C2CCCC2)c1=O [PALBO, Palbociclib]

Mean ± SD measured concentration, stored at -80ºC over 2 months (plasma) [4, 10]: 7699.21 ± 117.73 ng/mL
Acc. %, stored at -80ºC over 2 months (plasma) [4, 10]: 96.2%
Mean ± SD measured concentration, stored at -80ºC over 2 months (plasma) [4, 11]: 21.10 ± 1.05 ng/mL
Acc. %, stored at -80ºC over 2 months (plasma) [4, 11]: 105.5%
Mean ± SD measured concentration, stored at -80ºC over 2 months (plasma) [4, 12]: 789.37 ± 28.89 ng/mL
Acc. %, stored at -80ºC over 2 months (plasma) [4, 12]: 98.7%
Mean ± SD measured concentration, T = 72 h in autosampler (4°C) [1, 7]: 8274.93 ± 207.29 ng/mL
Acc. %, T = 72 h in autosampler (4°C) [1, 7]: 103.4%
Mean ± SD measured concentration, T = 72 h in autosampler (4°C) [1, 8]: 21.24 ± 1.45 ng/mL
Acc. %, T = 72 h in autosampler (4°C) [1, 8]: 106.2%
Mean ± SD measured concentration, T = 72 h in autosampler (4°C) [1, 9]: 815.31 ± 36.72 ng/mL
Acc. %, T = 72 h in autosampler (4°C) [1, 9]: 101.9%
Mean ± SD measured concentration, T = 4h (RT) ([6]; plasma QC high: nominal 200.00 PALBO / 8000.00 RIBO / 400.00 LETRO ng/mL): 7218.92 ± 402.94 ng/mL
Mean ± SD measured concentration, T = 4h (RT) ([6]; plasma QC low: nominal 0.50 PALBO / 20.00 RIBO / 1.00 LETRO ng/mL): 18.86 ± 0.74 ng/mL
Mean ± SD measured concentration, T = 4h (RT) ([6]; plasma QC medium: nominal 20.00 PALBO / 800.00 RIBO / 40.00 LETRO ng/mL): 751.88 ± 27.56 ng/mL
Mean ± SD measured concentration, stored at -20ºC over 2 months (methanol) [2, 10]: 8522.63 ± 68.65 ng/mL
Acc. %, stored at -20ºC over 2 months (methanol) [2, 10]: 106.5%
Mean ± SD measured concentration, stored at -20ºC over 2 months (methanol) [2, 11]: 19.52 ± 0.30 ng/mL
Acc. %, stored at -20ºC over 2 months (methanol) [2, 11]: 97.6%
Mean ± SD measured concentration, stored at -20ºC over 2 months (methanol) [2, 12]: 885.44 ± 35.25 ng/mL
Acc. %, stored at -20ºC over 2 months (methanol) [2, 12]: 110.7%
concentration at 30 h ([3]; 30 h from last pills intake, read-out: I quantif. plasma concentration (Cmin)): 396 ng/mL
concentration at 30 h [3, 13]: 419 ng/mL
Structure (SMILES): CN(C)C(=O)c1cc2cnc(Nc3ccc(N4CCNCC4)cn3)nc2n1C1CCCC1 [RIBO, ribociclib]
in vivo RIBO plasma concentration (CV), Cmin, population mean ([5]; 20 (ref 19)): 711 ng/mL and 711 (72.9) ng/mL
in vivo RIBO plasma concentration (CV), upper end of range [5]: 3500 (65.8) ng/mL
